In US5886016A, “Benzopyranopyrazolyl derivatives for the treatment of inflammation” (G.D. Searle & Co., priority 1997, dated 1999):

How the values were obtained:
Human COX-1 = molecular target: T1, Human COX-1 (Homo sapiens, UniProt P23219); experiment: Evaluation of COX-1 activity in vitro (recombinant enzyme, PGE2 ELISA); type: biochemical; details: 10 μM arachidonic acid; 10-20 minutes pre-incubation; pH 8.0
T1 construct: A 2.0 kb fragment containing the coding region of either human or murine COX-1 or human or murine COX-2; made in house; host or cells: SF9 insect cells (recombinant baculovirus, pVL1393); CHAPS-solubilized membranes
T1 sequence (P23219 24-599): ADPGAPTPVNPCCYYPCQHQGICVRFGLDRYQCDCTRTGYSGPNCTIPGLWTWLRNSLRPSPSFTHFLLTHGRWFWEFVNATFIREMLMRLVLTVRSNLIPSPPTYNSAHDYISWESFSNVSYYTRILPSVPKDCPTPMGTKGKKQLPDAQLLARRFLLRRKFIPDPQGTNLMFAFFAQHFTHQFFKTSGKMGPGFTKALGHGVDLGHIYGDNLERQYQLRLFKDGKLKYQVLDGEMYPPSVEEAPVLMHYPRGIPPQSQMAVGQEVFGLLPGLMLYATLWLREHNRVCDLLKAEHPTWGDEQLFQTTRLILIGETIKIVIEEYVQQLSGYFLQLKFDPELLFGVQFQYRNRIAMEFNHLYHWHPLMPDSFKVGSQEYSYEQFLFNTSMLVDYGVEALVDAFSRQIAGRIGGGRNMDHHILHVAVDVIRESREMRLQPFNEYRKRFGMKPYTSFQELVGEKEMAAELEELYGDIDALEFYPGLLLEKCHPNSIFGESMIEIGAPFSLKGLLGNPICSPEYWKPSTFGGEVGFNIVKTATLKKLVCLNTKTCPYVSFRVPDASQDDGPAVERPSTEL
Source text: Evaluation of COX-1 and COX-2 activity in vitro
(§1) a. Preparation of recombinant COX baculoviruses
(§2) A 2.0 kb fragment containing the coding region of either human or murine COX-1 or human or murine COX-2 was cloned into a BamH1 site of the baculovirus transfer vector pVL1393 (Invitrogen) to generate the baculovirus transfer vectors for COX-1 and COx-2 in a manner similar to the method of D. R. O'Reilly et al (Baculovirus Expression Vectors: A Laboratory Manual (1992)). Recombinant baculoviruses were isolated by transfecting 4 μg of baculovirus transfer vector DNA into SF9 insect cells (2>10e8) along with 200 ng of linearized baculovirus plasmid DNA by the calcium phosphate method. See M. D. Summers and G. E. Smith, A Manual of Methods for Baculovirus Vectors and Insect Cell Culture Procedures, Texas Agric. Exp. Station Bull. 1555 (1987). Recombinant viruses were purified by three rounds of plaque purification and high titer (10E7-10E8 pfu/ml) stocks of virus were prepared. For large scale production, SF9 insect cells were infected in 10 liter fermentors (0.5×10^6 /ml) with the recombinant baculovirus stock such that the multiplicity of infection was 0.1. After 72 hours the cells were centrifuged and the cell pellet homogenized in Tris/Sucrose (50 mM: 25%, pH 8.0) containing 1% 3-[(3-cholamidopropyl)dimethylammoniol]-1-propanesulfonate (CHAPS). The homogenate was centrifuged at 10,000×G for 30 minutes, and the resultant supernatant was stored at -80° C. before being assayed for Cox activity.
b. Assay for COX-1 and COX-2 activity:
(§3) COX activity was assayed as PGE2 formed/μg protein/time using an ELISA to detect the prostaglandin released. CHAPS-solubilized insect cell membranes containing the appropriate COX enzyme were incubated in a potassium phosphate buffer (50 mM, pH 8.0) containing epinephrine, phenol, and heme with the addition of arachidonic acid (10 μM). Compounds were pre-incubated with the enzyme for 10-20 minutes prior to the addition of arachidonic acid. Any reaction between the arachidonic acid and the enzyme was stopped after ten minutes at 37° C./room temperature by transferring 40 μl of reaction mix into 160 μl ELISA buffer and 25 μM indomethacin. The PGE2 formed was measured by standard ELISA technology (Cayman Chemical).

Human COX-2 = molecular target: T2, Human COX-2 (Homo sapiens, UniProt P35354); experiment: Evaluation of COX-2 activity in vitro (recombinant enzyme, PGE2 ELISA); type: biochemical; details: 10 μM arachidonic acid; 10-20 minutes pre-incubation; pH 8.0
T2 construct: A 2.0 kb fragment containing the coding region of either human or murine COX-1 or human or murine COX-2; made in house; host or cells: SF9 insect cells (recombinant baculovirus, pVL1393); CHAPS-solubilized membranes
T2 sequence (P35354 18-604): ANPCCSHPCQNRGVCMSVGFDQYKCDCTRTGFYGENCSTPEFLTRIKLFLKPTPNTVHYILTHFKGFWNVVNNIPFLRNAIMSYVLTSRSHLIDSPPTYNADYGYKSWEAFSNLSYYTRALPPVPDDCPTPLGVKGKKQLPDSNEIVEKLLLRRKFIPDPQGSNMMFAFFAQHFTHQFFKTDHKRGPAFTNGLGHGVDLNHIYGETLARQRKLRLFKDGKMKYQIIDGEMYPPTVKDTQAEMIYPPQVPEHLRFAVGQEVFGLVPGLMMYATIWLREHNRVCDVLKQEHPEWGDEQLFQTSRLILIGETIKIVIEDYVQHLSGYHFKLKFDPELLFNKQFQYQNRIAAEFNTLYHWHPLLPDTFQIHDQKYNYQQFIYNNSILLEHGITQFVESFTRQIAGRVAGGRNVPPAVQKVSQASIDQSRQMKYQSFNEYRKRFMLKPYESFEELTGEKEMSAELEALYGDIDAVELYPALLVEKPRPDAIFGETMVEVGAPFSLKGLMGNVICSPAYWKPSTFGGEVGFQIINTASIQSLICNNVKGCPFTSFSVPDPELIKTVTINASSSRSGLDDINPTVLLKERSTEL
Method: The COX-2 inhibition activity of the compounds of this invention illustrated in the Examples was determined by the following methods.
as §1, §2, §3

[1] = test system: hyperalgesic foot withdrawal (rat carrageenan); experiment: Rat Carrageenan-induced Analgesia Test; type: in vivo, Male Sprague-Dawley rats; details: @ 30 mg/kg body weight; oral; 3 hours after carrageenan
Method: Rat Carrageenan-induced Analgesia Test
Male Sprague-Dawley rats were treated as previously described for the Carrageenan Foot Pad Edema test. Three hours after the injection of the carrageenan, the rats were placed in a special plexiglass container with a transparent floor having a high intensity lamp as a radiant heat source, positionable under the floor. After an initial twenty minute period, thermal stimulation was begun on either the injected foot or on the contralateral uninjected foot. A photoelectric cell turned off the lamp and timer when light was interrupted by paw withdrawal. The time until the rat withdraws its foot was then measured. The withdrawal latency in seconds was determined for the control and drug-treated groups, and percent inhibition of the hyperalgesic foot withdrawal determined.

[2] = test system: carrageenan foot edema (rat paw); experiment: Rat Carrageenan Foot Pad Edema Test; type: in vivo, Male Sprague-Dawley rats; details: @ 30 mg/kg body weight; oral; 3 hours after carrageenan
Method: Rat Carrageenan Foot Pad Edema Test
Male Sprague-Dawley rats were selected in each group so that the average body weight was as close as possible. Rats were fasted with free access to water for over sixteen hours prior to the test. […] One hour later a subplantar injection of 0.1 mL of 1% solution of carrageenan/sterile 0.9% saline was administered and the volume of the injected foot was measured with a displacement plethysmometer connected to a pressure transducer with a digital indicator. Three hours after the injection of the carrageenan, the volume of the foot was again measured.

Row | Structure (SMILES) | IC50 (Human COX-1) [µM] | IC50 (Human COX-2) [µM] | ANALGESIA % Inhibition [1] [%] | RAT PAW EDEMA % Inhibition [2] [%]
1 | COc1cc2c(c(OC)c1OC)-c1c(c(C(F)(F)F)nn1-c1ccc(S(N)(=O)=O)cc1)OC2 [Example 27, 4-[1,5-dihydro-7.8,9-trimethoxy-3-(trifluoromethyl)-[2]benzopyrano[4,3-c]pyrazol-1-yl]benzenesulfonamide] | > 100 | 59.9 |  | 
2 | NS(=O)(=O)c1ccc(-n2nc(C(F)F)c3c2-c2ccc(Cl)cc2CS3)cc1 [Example 25, 4-[7-chloro-3-(difluoromethyl)-1,5-dihydro-[2]benzothiopyrano[4,3-c]pyrazol-1-yl]benzenesulfonamide] | 1.5 | < 0.1 |  | 
3 | CN(C)C=NS(=O)(=O)c1ccc(-n2nc(C#N)c3c2-c2ccc(F)cc2CS3)cc1 [Example 34, 4-(3-cyano-1,5-dihydro-7-fluoro-[2]benzothiopyrano[4,3-c]pyrazol-1-yl) -N-[(dimethylamino)methylene]-benzenesulfonamide] | > 100 | 4.2 |  | 
4 | NS(=O)(=O)c1ccc(-n2nc(C(F)F)c3c2-c2ccc(F)cc2CS3)cc1 [Example 31, 4-[3-(difluoromethyl)-1,5-dihydro-7-fluoro-[2]benzothiopyrano[4,3-c]pyrazol-1-yl]benzenesulfonamide] | 0.2 | < 0.1 |  | 
5 | NS(=O)(=O)c1ccc(-n2nc(CO)c3c2-c2ccc(F)cc2CS3)cc1 [Example 36] | 6.7 | 1.7 |  | 
6 | NS(=O)(=O)c1ccc(-n2nc(C(F)(F)F)c3c2-c2cc(Cl)sc2CS3)cc1 [Example 21, 4-[7-chloro-1,5-dihydro-3-trifluoromethylthieno[3',2':4,5]thiopyrano[3,2-c]pyrazol-1-yl]benzenesulfonamide] |  |  | 14 | 
7 | COc1c(F)cc2c(c1F)CSc1c(C(F)(F)F)nn(-c3ccc(S(N)(=O)=O)cc3)c1-2 [Example 29, 4-[6,8-difluoro-1,5-dihydro-7-methoxy-3-(trifluoromethyl)[2]benzothiopyrano[4,3-c]pyrazol-1-yl]benzenesulfonamide] | > 100 | 0.3 |  | 
8 | Cc1ccc2c(c1)COc1c(C(F)F)nn(-c3ccc(S(N)(=O)=O)cc3)c1-2 [Example 30, 4-[3-(difluoromethyl)-1,5-dihydro-7-methyl[2]benzopyrano[4,3-c]pyrazol-1-yl]benzenesulfonamide] | 10.7 | < 0.1 |  | 
9 | COc1ccc2c(c1F)CSc1c(C(F)(F)F)nn(-c3ccc(S(N)(=O)=O)cc3)c1-2 [Example 1, 4-[6-fluoro-1,5-dihydro-7-methoxy-3-(trifluoromethyl)-[2]benzothiopyrano[4,3-c]pyrazol-1-yl]benzenesulfonamide] |  |  | 35 | 43
10 | N#Cc1nn(-c2ccc(S(N)(=O)=O)cc2)c2c1SCc1cc(F)ccc1-2 [Example 35] | 0.8 | 0.1 |  | 
11 | Cc1ccc2c(c1)CSc1c(C(F)F)nn(-c3ccc(S(N)(=O)=O)cc3)c1-2 [Example 24, 4-[3-(difluoromethyl)-1,5-Dihydro-7-methyl-[2]benzothiopyrano[4,3-c]pyrazol-1-yl]benzenesulfonamide] | 1.2 | < 0.1 |  | 

Continued, in another order:

Row | IC50 (Human COX-1) [µM] | IC50 (Human COX-2) [µM] | Structure (SMILES) | ANALGESIA % Inhibition [1] [%] | RAT PAW EDEMA % Inhibition [2] [%]
12 | 0.4 |  | NS(=O)(=O)c1ccc(-n2nc(C(F)(F)F)c3c2-c2ccccc2CS3)cc1 [Example 16, 4-[1,5-dihydro-3-(trifluoromethyl)-[2]benzothiopyrano[4 3-c]pyrazol-1-yl]benzenesulfonamide] |  | 
13 | 9.7 |  | NS(=O)(=O)c1ccc(-n2nc(C(F)(F)F)c3c2-c2ccccc2SC3)cc1 [Example 7, 4-[1,4-dihydro-3-(trifluoromethyl)-[1]benzothiopyrano[4,3-c]pyrazol-1-yl]benzenesulfonamide] |  | 
14 | > 100 | < 0.1 | Cc1ccc2c(c1)COc1c(C(F)(F)F)nn(-c3ccc(S(N)(=O)=O)cc3)c1-2 [Example 28, 4-[1,5-dihydro-7-methyl-3-(trifluoromethyl)-[2]benzopyrano[4,3-c]pyrazol-1-yl]benzenesulfonamide] |  | 
15 | 7.1 |  | NS(=O)(=O)c1ccc(-n2nc(C(F)(F)F)c3c2-c2ccccc2OC3)cc1 [Example 3, 4-[1,4-dihydro-3-(trifluoromethyl)-[1]benzopyrano[4,3-c]pyrazol-1-yl]benzenesulfonamide] |  | 
16 | 8.9 | 0.2 | CS(=O)(=O)c1ccc(-n2nc(C(F)(F)F)c3c2-c2ccc(F)cc2CS3)cc1 [Example 32, 1,5-dihydro-7-fluoro-1-[(4-methylsulfonyl)phenyl]-3-(trifluoromethyl)-[2]benzothiopyrano[4,3,c]pyrazole] |  | 
17 | 0.2 | < 0.1 | COc1ccc2c(c1)COc1c(C(F)(F)F)nn(-c3ccc(S(N)(=O)=O)cc3)c1-2 [Example 26, 4-[1,5-dihydro-7-methoxy-3-(trifluoromethyl)-[2]benzopyrano[4,3-c]pyrazol-1-yl]benzenesulfonamide] |  | 
18 | < 0.1 | < 0.1 | NS(=O)(=O)c1ccc(-n2nc(C(F)(F)F)c3c2-c2ccc4c(c2CS3)OCO4)cc1 [Example 33] |  | 
